Starred links: 1 amine or outer side, 2 acyl side, 3 side chain; linkers in the order of their positions; H or OH if unused. Non-standard residues stand in square brackets, D forms with d. Residues, ends and D or L forms follow the SMILES beside them. Groups on a side chain read outwards from the residue. *: point of attachment. Phe(4-CH2NH2) = NCc1ccc(C[C@H](N)C(=O)O)cc1; C19 diacid = O=C(O)CCCCCCCCCCCCCCCCCC(=O)*; C18 diacid = O=C(O)CCCCCCCCCCCCCCCCC(=O)*; C16 diacid = O=C(O)CCCCCCCCCCCCCCC(=O)*; γGlu = O=C(O)[C@H](CCC(=O)[*:2])N[*:1]; Met(O2) = CS(=O)(=O)CC[C@H](N)C(=O)O; αMeF = C[C@](N)(Cc1ccccc1)C(=O)O; αMeD = C[C@](N)(CC(=O)O)C(=O)O; AEEA = NCCOCCOCC(=O)O; Aib = CC(C)(N)C(=O)O
What was measured:
[1] = biological target: T1, human GLP1R (Homo sapiens, UniProt P43220); assay: cAMP activity assay, cells expressing human GLP1R; type: cell-based; settings: cAMP production, assay buffer with or without 20% human serum (not stated which)
T1 construct: expressed in transfected cells; kept under Blasticidin and Hygromycin selection
T1 sequence (P43220 24-463): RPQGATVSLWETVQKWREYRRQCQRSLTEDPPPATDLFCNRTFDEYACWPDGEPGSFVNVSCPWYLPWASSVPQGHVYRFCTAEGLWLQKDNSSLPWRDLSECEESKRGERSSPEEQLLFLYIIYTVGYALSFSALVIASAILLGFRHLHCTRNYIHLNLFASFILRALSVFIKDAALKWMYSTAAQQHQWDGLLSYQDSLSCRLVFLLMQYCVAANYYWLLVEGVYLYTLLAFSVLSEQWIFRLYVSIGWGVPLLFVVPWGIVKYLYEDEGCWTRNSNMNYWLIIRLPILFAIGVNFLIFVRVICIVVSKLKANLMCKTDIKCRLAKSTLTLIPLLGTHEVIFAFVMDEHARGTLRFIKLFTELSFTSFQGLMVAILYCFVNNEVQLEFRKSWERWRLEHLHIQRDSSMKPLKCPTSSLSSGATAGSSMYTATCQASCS
Summary of the method: (§1)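 cAMP production in human GLP1R- or GCGR-expressing cells was read by luminescence after overnight dark incubation at room temperature. Peptides were given as 10-point DMSO dilution series, with native GLP-1 and glucagon as references. Four-parameter logistic fitting gave EC50.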

[2] = biological target: T2, human GCGR (Homo sapiens, UniProt P47871); assay: cAMP activity assay, cells expressing human GCGR; type: cell-based; settings: for EC50: cAMP production, cells expressing human GCGR, assay buffer with or without 20% human serum (not stated which), read-out: GCGR EC50 human; for hGCGR/hGLP1R (hTone): ratio of human GCGR EC50 to human GLP1R EC50
T2 construct: expressed in transfected cells; kept under Blasticidin and Hygromycin selection
T2 sequence (P47871 26-477): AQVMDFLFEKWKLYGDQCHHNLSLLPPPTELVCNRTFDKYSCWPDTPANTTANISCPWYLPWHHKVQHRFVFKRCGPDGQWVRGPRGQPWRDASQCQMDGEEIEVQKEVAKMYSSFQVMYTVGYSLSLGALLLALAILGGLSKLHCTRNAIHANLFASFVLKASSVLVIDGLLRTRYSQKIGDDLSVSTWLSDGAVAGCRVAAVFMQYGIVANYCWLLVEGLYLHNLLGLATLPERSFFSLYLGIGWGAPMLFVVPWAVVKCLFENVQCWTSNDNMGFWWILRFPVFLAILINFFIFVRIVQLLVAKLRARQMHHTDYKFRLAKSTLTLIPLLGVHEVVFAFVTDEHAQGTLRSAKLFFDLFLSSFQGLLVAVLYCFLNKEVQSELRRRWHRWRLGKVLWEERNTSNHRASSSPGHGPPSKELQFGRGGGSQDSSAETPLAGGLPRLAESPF
Summary of the method: as §1

Structure (SMILES): CC(C)C[C@H](NC(=O)[C@H](CC(C)C)NC(=O)[C@H](CCCCN)NC(=O)[C@H](CO)NC(=O)[C@H](Cc1ccc(O)cc1)NC(=O)[C@H](CC(=O)O)NC(=O)[C@H](CO)NC(=O)[C@@H](NC(=O)[C@H](Cc1ccccc1)NC(=O)[C@@H](NC(=O)CNC(=O)[C@H](CCC(N)=O)NC(=O)C(C)(C)NC(=O)[C@@H](N)Cc1c[nH]cn1)[C@@H](C)O)[C@@H](C)O)C(=O)N[C@@H](CC(=O)O)C(=O)N[C@@H](C)C(=O)N[C@@H](CCCNC(=N)N)C(=O)N[C@@H](C)C(=O)N[C@@H](C)C(=O)N[C@@H](CCCCNC(=O)COCCOCCNC(=O)COCCOCCNC(=O)CC[C@H](NC(=O)CCCCCCCCCCCCCCCCC(=O)O)C(=O)O)C(=O)N[C@@H](CC(=O)O)C(=O)N[C@@H](Cc1ccccc1)C(=O)N[C@H](C(=O)N[C@@H](CCC(N)=O)C(=O)N[C@@H](Cc1c[nH]c2ccccc12)C(=O)N[C@@H](CC(C)C)C(=O)N[C@@H](CCS(C)(=O)=O)C(=O)N[C@@](C)(CC(=O)O)C(=O)N[C@H](C(N)=O)[C@@H](C)O)C(C)C [compound 79] (H-H[Aib]QGTFTSDYSKLLDARAAK([AEEA-AEEA-γGlu-C18 diacid])DFVQWL[Met(O2)][αMeD]T-NH2)
- EC50 [1]: 0.84 nM
- EC50 [2]: 0.69 nM
- hGCGR/hGLP1R (hTone) [2]: 0.8

Structure (SMILES): CC(C)C[C@H](NC(=O)[C@H](Cc1ccc(O)cc1)NC(=O)[C@H](CCCCN)NC(=O)[C@H](CO)NC(=O)[C@H](Cc1ccc(CNC(=O)COCCOCCNC(=O)COCCOCCNC(=O)CC[C@H](NC(=O)CCCCCCCCCCCCCCC(=O)O)C(=O)O)cc1)NC(=O)[C@H](CC(=O)O)NC(=O)[C@H](CO)NC(=O)[C@@H](NC(=O)[C@H](Cc1ccccc1)NC(=O)[C@@H](NC(=O)CNC(=O)[C@H](CCC(N)=O)NC(=O)[C@@H](CO)NC(=O)[C@@H](N)Cc1c[nH]cn1)[C@@H](C)O)[C@@H](C)O)C(=O)N[C@@H](CC(=O)O)C(=O)N[C@@H](CCC(=O)O)C(=O)N[C@@H](CCCNC(=N)N)C(=O)N[C@@H](C)C(=O)N[C@@H](C)C(=O)N[C@@H](CCC(N)=O)C(=O)N[C@@H](CC(=O)O)C(=O)N[C@@H](Cc1ccccc1)C(=O)N[C@H](C(=O)N[C@@H](CCC(N)=O)C(=O)N[C@@H](Cc1c[nH]c2ccccc12)C(=O)N[C@@H](CC(C)C)C(=O)N[C@@H](CC(C)C)C(=O)N[C@@H](CCCCN)C(=O)N[C@H](C(N)=O)[C@@H](C)O)C(C)C [compound 10] (H-H[dS]QGTFTSD[Phe(4-CH2NH2)]([AEEA-AEEA-γGlu-C16 diacid])SKYLDERAAQDFVQWLLKT-NH2; N-terminus assumed)
- EC50 [1]: 0.46 nM
- EC50 [2]: 0.12 nM
- hGCGR/hGLP1R (hTone) [2]: 0.26

Structure (SMILES): CC(C)C[C@H](NC(=O)[C@H](Cc1ccc(O)cc1)NC(=O)[C@H](CCCCN)NC(=O)[C@H](CO)NC(=O)[C@H](Cc1ccc(O)cc1)NC(=O)[C@H](CC(=O)O)NC(=O)[C@H](CO)NC(=O)[C@@H](NC(=O)[C@H](Cc1ccccc1)NC(=O)[C@@H](NC(=O)CNC(=O)[C@H](CCC(N)=O)NC(=O)C(C)(C)NC(=O)[C@@H](N)Cc1c[nH]cn1)[C@@H](C)O)[C@@H](C)O)C(=O)N[C@@H](CC(=O)O)C(=O)N[C@@H](C)C(=O)N[C@@H](CCCNC(=N)N)C(=O)N[C@@H](C)C(=O)N[C@@H](C)C(=O)N[C@@H](CCCCNC(=O)COCCOCCNC(=O)COCCOCCNC(=O)CC[C@H](NC(=O)CCCCCCCCCCCCCCC(=O)O)C(=O)O)C(=O)N[C@@H](CC(=O)O)C(=O)N[C@@](C)(Cc1ccccc1)C(=O)N[C@H](C(=O)N[C@@H](CCC(N)=O)C(=O)N[C@@H](Cc1c[nH]c2ccccc12)C(=O)N[C@@H](CC(C)C)C(=O)N[C@@H](CCS(C)(=O)=O)C(=O)N[C@@H](CC(=O)O)C(=O)N[C@H](C(N)=O)[C@@H](C)O)C(C)C [compound 39] (H-H[Aib]QGTFTSDYSKYLDARAAK([AEEA-AEEA-γGlu-C16 diacid])D[αMeF]VQWL[Met(O2)]DT-NH2)
- EC50 [1]: 0.11 nM
- EC50 [2]: 0.33 nM
- hGCGR/hGLP1R (hTone) [2]: 2.93

Structure (SMILES): CC(C)C[C@H](NC(=O)[C@H](Cc1c[nH]c2ccccc12)NC(=O)[C@H](CCC(N)=O)NC(=O)[C@@H](NC(=O)[C@H](Cc1ccccc1)NC(=O)[C@H](CC(=O)O)NC(=O)[C@H](CCC(N)=O)NC(=O)[C@H](C)NC(=O)[C@H](C)NC(=O)[C@H](CCCNC(=N)N)NC(=O)C(C)(C)NC(=O)[C@H](CC(=O)O)NC(=O)[C@H](CC(C)C)NC(=O)[C@H](Cc1ccc(O)cc1)NC(=O)[C@H](Cc1ccc(CNC(=O)COCCOCCNC(=O)COCCOCCNC(=O)CC[C@H](NC(=O)CCCCCCCCCCCCCCC(=O)O)C(=O)O)cc1)NC(=O)[C@H](CO)NC(=O)[C@H](Cc1ccc(O)cc1)NC(=O)[C@H](CC(=O)O)NC(=O)[C@H](CO)NC(=O)[C@@H](NC(=O)[C@H](Cc1ccccc1)NC(=O)[C@@H](NC(=O)CNC(=O)[C@H](CCC(N)=O)NC(=O)C(C)(C)NC(=O)[C@@H](N)Cc1c[nH]cn1)[C@@H](C)O)[C@@H](C)O)C(C)C)C(=O)N[C@@H](CCS(C)(=O)=O)C(=O)N[C@@H](CC(=O)O)C(=O)N[C@H](C(N)=O)[C@@H](C)O [compound 25] (H-H[Aib]QGTFTSDYS[Phe(4-CH2NH2)]([AEEA-AEEA-γGlu-C16 diacid])YLD[Aib]RAAQDFVQWL[Met(O2)]DT-NH2)
- EC50 [1]: 0.02 nM
- EC50 [2]: 0.32 nM
- hGCGR/hGLP1R (hTone) [2]: 14.00

Structure (SMILES): CC(C)C[C@H](NC(=O)[C@H](Cc1ccc(O)cc1)NC(=O)[C@H](CCCCN)NC(=O)[C@H](CO)NC(=O)[C@H](Cc1ccc(O)cc1)NC(=O)[C@H](CC(=O)O)NC(=O)[C@H](CO)NC(=O)[C@@H](NC(=O)[C@H](Cc1ccccc1)NC(=O)[C@@H](NC(=O)CNC(=O)[C@H](CCC(N)=O)NC(=O)C(C)(C)NC(=O)[C@@H](N)Cc1c[nH]cn1)[C@@H](C)O)[C@@H](C)O)C(=O)N[C@@H](CC(=O)O)C(=O)N[C@@H](C)C(=O)N[C@@H](CCCNC(=N)N)C(=O)N[C@@H](C)C(=O)N[C@@H](C)C(=O)N[C@@H](CCCCNC(=O)COCCOCCNC(=O)COCCOCCNC(=O)CC[C@H](NC(=O)CCCCCCCCCCCCCCCCCC(=O)O)C(=O)O)C(=O)N[C@@H](CC(=O)O)C(=O)N[C@@H](Cc1ccccc1)C(=O)N[C@H](C(=O)N[C@@H](CCC(N)=O)C(=O)N[C@@H](Cc1c[nH]c2ccccc12)C(=O)N[C@@H](CC(C)C)C(=O)N[C@@H](CCS(C)(=O)=O)C(=O)N[C@@H](CC(=O)O)C(=O)N[C@H](C(N)=O)[C@@H](C)O)C(C)C [compound 45] (H-H[Aib]QGTFTSDYSKYLDARAAK([AEEA-AEEA-γGlu-C19 diacid])DFVQWL[Met(O2)]DT-NH2)
- EC50 [1]: 0.12 nM
- EC50 [2]: 0.16 nM
- hGCGR/hGLP1R (hTone) [2]: 1.30

Structure (SMILES): CC(C)C[C@H](NC(=O)[C@H](Cc1ccc(O)cc1)NC(=O)[C@H](CCCCN)NC(=O)[C@H](CO)NC(=O)[C@H](Cc1ccc(O)cc1)NC(=O)[C@H](CC(=O)O)NC(=O)[C@H](CO)NC(=O)[C@@H](NC(=O)[C@H](Cc1ccccc1)NC(=O)[C@@H](NC(=O)CNC(=O)[C@H](CCC(N)=O)NC(=O)C(C)(C)NC(=O)[C@@H](N)Cc1c[nH]cn1)[C@@H](C)O)[C@@H](C)O)C(=O)N[C@@H](CC(=O)O)C(=O)N[C@@H](C)C(=O)N[C@@H](CCCNC(=N)N)C(=O)N[C@@H](C)C(=O)N[C@@H](C)C(=O)N[C@@H](CCCCNC(=O)COCCOCCNC(=O)COCCOCCNC(=O)CC[C@H](NC(=O)CCCCCCCCCCCCCCCCC(=O)O)C(=O)O)C(=O)N[C@@H](CC(=O)O)C(=O)N[C@@H](Cc1ccccc1)C(=O)N[C@H](C(=O)N[C@@H](CCC(N)=O)C(=O)N[C@@H](Cc1c[nH]c2ccccc12)C(=O)N[C@@H](CC(C)C)C(=O)N[C@@H](CCS(C)(=O)=O)C(=O)N[C@@H](CC(=O)O)C(=O)N[C@H](C(N)=O)[C@@H](C)O)C(C)C [compound 29] (H-H[Aib]QGTFTSDYSKYLDARAAK([AEEA-AEEA-γGlu-C18 diacid])DFVQWL[Met(O2)]DT-NH2; N-terminus assumed)
- EC50 [1]: 0.27 nM
- EC50 [2]: 0.79 nM
- hGCGR/hGLP1R (hTone) [2]: 2.93

Structure (SMILES): CC(C)C[C@H](NC(=O)[C@H](Cc1ccc(O)cc1)NC(=O)[C@H](CCCCN)NC(=O)[C@H](CO)NC(=O)[C@H](Cc1ccc(O)cc1)NC(=O)[C@H](CC(=O)O)NC(=O)[C@H](CO)NC(=O)[C@@H](NC(=O)[C@H](Cc1ccccc1)NC(=O)[C@@H](NC(=O)CNC(=O)[C@H](CCC(N)=O)NC(=O)C(C)(C)NC(=O)[C@@H](N)Cc1c[nH]cn1)[C@@H](C)O)[C@@H](C)O)C(=O)N[C@@H](CC(=O)O)C(=O)N[C@@H](C)C(=O)N[C@@H](CCCNC(=N)N)C(=O)N[C@@H](C)C(=O)N[C@@H](C)C(=O)N[C@@H](CCCCNC(=O)COCCOCCNC(=O)COCCOCCNC(=O)CC[C@H](NC(=O)CCCCCCCCCCCCCCCCC(=O)O)C(=O)O)C(=O)N[C@@H](CC(=O)O)C(=O)N[C@@H](Cc1ccccc1)C(=O)N[C@H](C(=O)N[C@@H](CCC(N)=O)C(=O)N[C@@H](Cc1c[nH]c2ccccc12)C(=O)N[C@@H](CC(C)C)C(=O)N[C@@H](CCS(C)(=O)=O)C(=O)N[C@@](C)(CC(=O)O)C(=O)N[C@H](C(N)=O)[C@@H](C)O)C(C)C [compound 74] (H-H[Aib]QGTFTSDYSKYLDARAAK([AEEA-AEEA-γGlu-C18 diacid])DFVQWL[Met(O2)][αMeD]T-NH2)
- EC50 [1]: 1.39 nM
- EC50 [2]: 0.86 nM
- hGCGR/hGLP1R (hTone) [2]: 0.6

From patent publication US11492385B2, “Long-acting co-agonists of the glucagon and GLP-1 receptors” (Merck Sharp & Dohme Corp., priority 2015, dated 2022)
